Source: patent US8895761B2, “4-phenylpyrane-3,5-diones, 4-phenylthiopyrane-3,5-diones and 2-phenylcyclohexane-1,3,5-triones as herbicides” (Syngenta Limited, priority 2007, dated 2014)

How the values were obtained:
Format in all cases: in vivo
Setaria faberi (SETFA) [1] = test: Pre-emergence herbicidal glasshouse test, Setaria faberi; conditions: rate 250 g/ha, evaluated after 13 days, scale 100 = total damage to plant, 0 = no damage; for pest or weed control at 250 g/ha: Setaria faberi, 312 h
Method: (§1) Seeds of a variety of test species were sown in standard soil in pots. After cultivation for one day (pre-emergence) or after 8 days cultivation (post-emergence) under controlled conditions in a glasshouse (at 24/16° C., day/night; 14 hours light; 65% humidity), the plants were sprayed with an aqueous spray solution derived from the formulation of the technical active ingredient in acetone/water (50:50) solution containing 0.5% Tween 20 (polyoxyethelyene sorbitan monolaurate, CAS RN 9005-64-5). The test plants were then grown in a glasshouse under controlled conditions in a glasshouse (at 24/16° C., day/night; 14 hours light; 65% humidity) and watered twice daily. After 13 days for pre and post-emergence, the test was evaluated ([…] to plant; 0=no damage to plant).
(§2) Setaria faberi (SETFA), Lolium perenne (LOLPE), Alopecurus myosuroides (ALOMY), Echinochloa crus-galli (ECHCG) and Avena fatua (AVEFA).

[2] = tested on: Alopecurus myosuroides (ALOMY); test: Pre-emergence herbicidal glasshouse test, Alopecurus myosuroides; conditions: rate 250 g/ha, evaluated after 13 days, scale 100 = total damage to plant, 0 = no damage; for pest or weed control at 250 g/ha: Alopecurus myosuroides, 312 h
Outline: (§3)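 Visual damage scores (0 = undamaged, top = plant totally killed) were taken 13 days after spraying. Treatment was given one day after sowing or at day 8 of cultivation, under 24/16° C. glasshouse conditions.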

[3] = tested on: Echinochloa crus-galli (ECHCG); test: Pre-emergence herbicidal glasshouse test, Echinochloa crus-galli; conditions: rate 250 g/ha, evaluated after 13 days, scale 100 = total damage to plant, 0 = no damage; for pest or weed control at 250 g/ha: Echinochloa crus-galli, 312 h
Outline: as §3

Avena fatua (AVEFA) [4] = test: Pre-emergence herbicidal glasshouse test, Avena fatua; conditions: rate 250 g/ha, evaluated after 13 days, scale 100 = total damage to plant, 0 = no damage; for pest or weed control at 250 g/ha: Avena fatua, 312 h
Outline: as §3

Setaria faberi (SETFA) [5] = test: Post-emergence herbicidal glasshouse test, Setaria faberi; conditions: rate 250 g/ha, evaluated after 13 days, scale 100 = total damage to plant, 0 = no damage; for pest or weed control at 250 g/ha: Setaria faberi, 312 h
Method: as §1, §2

[6] = tested on: Alopecurus myosuroides (ALOMY); test: Post-emergence herbicidal glasshouse test, Alopecurus myosuroides; conditions: rate 250 g/ha, evaluated after 13 days, scale 100 = total damage to plant, 0 = no damage; for pest or weed control at 250 g/ha: Alopecurus myosuroides, 312 h
Outline: as §3

[7] = tested on: Echinochloa crus-galli (ECHCG); test: Post-emergence herbicidal glasshouse test, Echinochloa crus-galli; conditions: rate 250 g/ha, evaluated after 13 days, scale 100 = total damage to plant, 0 = no damage; for pest or weed control at 250 g/ha: Echinochloa crus-galli, 312 h
Outline: as §3

Avena fatua (AVEFA) [8] = test: Post-emergence herbicidal glasshouse test, Avena fatua; conditions: rate 250 g/ha, evaluated after 13 days, scale 100 = total damage to plant, 0 = no damage; for pest or weed control at 250 g/ha: Avena fatua, 312 h
Outline: as §3

SMILES | pest or weed control at 250 g/ha (Setaria faberi (SETFA) [1]) [%] | pest or weed control at 250 g/ha [2] [%] | pest or weed control at 250 g/ha [3] [%] | pest or weed control at 250 g/ha (Avena fatua (AVEFA) [4]) [%] | pest or weed control at 250 g/ha (Setaria faberi (SETFA) [5]) [%] | pest or weed control at 250 g/ha [6] [%] | pest or weed control at 250 g/ha [7] [%] | pest or weed control at 250 g/ha (Avena fatua (AVEFA) [8]) [%] | damage to plant SETFA, pre-emergence activity (Setaria faberi (SETFA) [1]) | damage to plant ALOMY, pre-emergence activity [2] | damage to plant ECHCG, pre-emergence activity [3] | damage to plant AVEFA, pre-emergence activity (Avena fatua (AVEFA) [4]) | damage to plant SETFA, post-emergence activity (Setaria faberi (SETFA) [5]) | damage to plant ALOMY, post-emergence activity [6] | damage to plant ECHCG, post-emergence activity [7] | damage to plant AVEFA, post-emergence activity (Avena fatua (AVEFA) [8])
CCc1cc(-c2ccc(Cl)c(C(F)(F)F)c2)ccc1C1=C(O)[C@@]2(C)CC[C@H](O2)C1=O [Compound A-22] | 50 | 0 | 40 | 50 | 100 | 100 | 90 | 70 | – | – | – | – | – | – | – | –
CCc1cc(-c2ccc(Cl)c(F)c2Cl)ccc1C1=C(O)[C@@]2(C)CC[C@H](O2)C1=O (racemic) [Compound A-29] | 50 | 30 | 40 | 50 | 100 | 90 | 100 | 60 | – | – | – | – | – | – | – | –
CCc1cc(-c2cc(Cl)cc(Cl)c2)ccc1C1=C(O)[C@@]2(C)CC[C@H](O2)C1=O [Compound A-15] | 40 | 0 | 30 | 40 | 100 | 100 | 100 | 80 | – | – | – | – | – | – | – | –
CCc1cc(-c2ccc(Cl)c(Cl)c2F)ccc1C1=C(O)[C@@]2(C)CC[C@H](O2)C1=O (racemic) [Compound A-31] | 60 | 30 | 50 | 30 | 100 | 90 | 100 | 40 | – | – | – | – | – | – | – | –
CCc1cc(-c2ccc(C)cc2)cc(CC)c1C1=C(O)[C@@]2(C)CC[C@H](O2)C1=O (racemic) [Compound A-12] | 80 | 30 | 70 | 20 | 100 | 70 | 100 | 0 | – | – | – | – | – | – | – | –
CCc1cc(-c2ccc(Cl)s2)ccc1C1=C(O)[C@@]2(C)CC[C@H](O2)C1=O [Compound A-23] | 60 | 60 | 50 | 40 | 80 | 90 | 100 | 30 | – | – | – | – | – | – | – | –
CCc1cc(-c2ccc(C)cc2)ccc1C1=C(O)[C@@]2(C)CC[C@H](O2)C1=O (racemic) [Compound A-6] | 0 | 0 | 0 | 0 | 80 | 70 | 80 | 30 | – | – | – | – | – | – | – | –
CCc1cc(-c2ccc(Cl)c(C)c2)ccc1C1=C(O)[C@@]2(C)CC[C@H](O2)C1=O [Compound A-19] | 0 | 0 | 80 | 30 | 80 | 90 | 90 | 60 | – | – | – | – | – | – | – | –
CCc1cc(-c2ccc(Cl)c(OC)c2)ccc1C1=C(O)[C@@]2(C)CC[C@H](O2)C1=O [Compound A-20] | 80 | 70 | 70 | 40 | 90 | 90 | 100 | 70 | – | – | – | – | – | – | – | –
CCc1cc(-c2ccc(Cl)cc2)cc(CC)c1C1=C(O)[C@@]2(C)CC[C@H](O2)C1=O (racemic) [Compound A-11] | 100 | 80 | 100 | 100 | 100 | 100 | 100 | 100 | – | – | – | – | – | – | – | –
CCc1cc(-c2ccc(F)cc2)ccc1C1=C(O)[C@@]2(C)CC[C@H](O2)C1=O [Compound A-18] | 100 | 90 | 100 | 70 | 100 | 100 | 100 | 90 | – | – | – | – | – | – | – | –
CCc1cc(-c2ccc(Cl)cc2)ccc1C1=C(OC(C)=O)[C@@H]2CC[C@@](C)(O2)C1=O (racemic) [Compound D-1] | 80 | 60 | 70 | 40 | 100 | 90 | 100 | 80 | – | – | – | – | – | – | – | –
Cc1cc(-c2ccccc2)cc(C)c1C1=C(O)[C@@]2(C)C=C[C@H](O2)C1=O [Compound A-2] | – | – | 70 | 20 | 80 | 90 | 100 | 0 | 60 | 50 | – | – | – | – | – | –
Cc1cc(-c2ccc(Cl)cc2)ccc1C1=C(O)[C@@]2(C)CC[C@H](O2)C1=O (racemic) [Compound A-10] | 0 | 0 | 30 | 0 | 100 | 90 | 100 | 50 | – | – | – | – | – | – | – | –
CCc1cc(-c2ccccc2)ccc1C1=C(O)[C@@]2(C)CC[C@H](O2)C1=O (racemic) [Compound A-4] | 20 | 40 | 40 | 0 | 60 | 80 | 80 | 0 | – | – | – | – | – | – | – | –
CCc1cc(-c2c(F)cc(Cl)cc2F)ccc1C1=C(O)[C@@]2(C)CC[C@H](O2)C1=O (racemic) [Compound A-27] | 30 | 20 | 40 | 0 | 100 | 90 | 100 | 70 | – | – | – | – | – | – | – | –
CCc1cc(-c2ccc(Cl)cc2)ccc1C1=C(O)[C@@]2(C)CC[C@H](O2)C1=O (racemic) [Compound A-5] | 70 | 30 | 40 | 0 | 100 | 90 | 100 | 70 | – | – | – | – | – | – | – | –
CCc1cc(-c2ccc(Cl)c(F)c2)ccc1C1=C(O)[C@@]2(C)CC[C@H](O2)C1=O (racemic) [Compound A-24] | 90 | 70 | 100 | 60 | 100 | 90 | 100 | 80 | – | – | – | – | – | – | – | –
Cc1cc(-c2ccccc2)cc(C)c1C1=C(O)[C@@]2(C)C=C[C@H](O2)C1=O [Compound A-3] | – | – | – | – | – | – | – | – | 90 | 0 | 70 | 20 | 100 | 70 | 100 | 0
CCc1cc(-c2ccc(Cl)cc2C)ccc1C1=C(O)[C@@]2(C)CC[C@H](O2)C1=O [Compound A-16] | 50 | 0 | 0 | 0 | 80 | 90 | 20 | 0 | – | – | – | – | – | – | – | –
